Data: BindingDB's records for patent US20250313563 (The Broad Institute, 2025)
Values joined by “and” are separate entries in the source; they are usually repeats but may differ in a detail not shown here. Equal entries are not always repeated.

Assays:
[1] = molecular target: Glycogen synthase kinase-3 alpha (Homo sapiens, UniProt P49840); assay: TR-FRET Assay
In short: (§1)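 TR-FRET readout: streptavidin-d2 (40 nM in added detection mix) plus Tb-anti-pSer641 Ab (2 nM in mix). Steps were 30 min compound preincubation, kinase reaction, then EDTA stop.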

[2] = molecular target: Glycogen synthase kinase-3 beta (Homo sapiens, UniProt P49841); assay: TR-FRET Assay
Glycogen synthase kinase-3 beta, sequence (P49841 whole entry): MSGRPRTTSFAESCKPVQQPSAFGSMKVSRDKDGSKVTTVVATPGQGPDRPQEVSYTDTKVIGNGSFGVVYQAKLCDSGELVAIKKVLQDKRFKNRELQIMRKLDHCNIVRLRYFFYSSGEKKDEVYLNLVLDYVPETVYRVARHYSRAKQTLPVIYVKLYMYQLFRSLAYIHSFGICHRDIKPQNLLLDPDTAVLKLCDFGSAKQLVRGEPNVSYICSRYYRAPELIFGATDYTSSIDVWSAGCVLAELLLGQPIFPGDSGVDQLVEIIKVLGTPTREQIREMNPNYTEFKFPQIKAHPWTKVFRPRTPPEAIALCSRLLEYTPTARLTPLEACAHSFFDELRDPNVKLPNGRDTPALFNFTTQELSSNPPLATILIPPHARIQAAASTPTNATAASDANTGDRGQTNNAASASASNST
In short: as §1

Glycogen synthase kinase-3 alpha, sequence (P49840 whole entry): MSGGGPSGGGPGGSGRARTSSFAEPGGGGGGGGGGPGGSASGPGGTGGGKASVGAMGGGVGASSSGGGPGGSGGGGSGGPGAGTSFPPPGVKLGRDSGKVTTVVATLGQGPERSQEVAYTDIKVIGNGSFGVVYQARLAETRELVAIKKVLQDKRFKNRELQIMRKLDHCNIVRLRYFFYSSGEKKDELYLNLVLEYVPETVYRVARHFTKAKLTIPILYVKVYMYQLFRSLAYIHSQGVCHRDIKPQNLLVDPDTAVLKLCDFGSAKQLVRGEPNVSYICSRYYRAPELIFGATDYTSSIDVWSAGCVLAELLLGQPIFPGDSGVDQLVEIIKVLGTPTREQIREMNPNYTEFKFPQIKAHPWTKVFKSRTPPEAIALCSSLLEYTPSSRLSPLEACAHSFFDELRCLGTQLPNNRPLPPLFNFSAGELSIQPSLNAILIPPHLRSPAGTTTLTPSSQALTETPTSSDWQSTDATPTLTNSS

| Structure (SMILES) | IC50 [1] | IC50 [2] |
| --- | --- | --- |
| CC(C)(C)CC1N=NC2=C1[C@](C)(c1cccc(S(=O)(=O)C(F)(F)F)c1)C1=C(CC(C)(C)CC1=O)N2 (stereo partly specified) [US20250313563, Compound 126395] | 1000 to 5000 nM | 100 to 1000 nM |
| CC1(C)CC(=O)C2=C(C1)NC1=C(CN=N1)C21CCN(S(=O)(=O)c2ccc(Cl)cc2)CC1 [US20250313563, Compound 945661] | < 100 nM | < 100 nM |
| CCC1(c2cccc(N3CCOc4ncccc43)c2)C2=CN=NC2NC2=C1C(=O)CC(C)(C)C2 (stereo unspecified) [US20250313563, Compound 918279] | < 100 nM | < 100 nM |
| CC[C@]1(c2cccc(-c3cnn(C)c3)c2)C2=C(CC(C)(C)CC2=O)NC2N=NC(C)=C21 (stereo partly specified) [US20250313563, Compound 913038] | 100 to 1000 nM | 1000 to 5000 nM |
| CC[C@@]1(c2cccc(N3CCCCC3)c2)C2=C(CC(C)(C)CC2=O)NC2N=NC(C(F)(F)F)=C21 (stereo partly specified) [US20250313563, Compound 816799] | 100 to 1000 nM | 1000 to 5000 nM |
| CC1(C)CC(=O)C2=C(C1)NC1=C(CN=N1)[C@@]21CCN(S(=O)(=O)c2ccccc2F)C1 [US20250313563, Compound 945719] | < 100 nM | < 100 nM |
| CCC1(c2cccc(-c3ccncn3)c2)C2=CN=NC2NC2=C1C(=O)CC(C)(C)C2 (stereo unspecified) [US20250313563, Compound 806637] | < 100 nM | 100 to 1000 nM |
| CC1(C)CC(=O)C2=C(C1)NC1N=NC=C1[C@]21CCCN(S(=O)(=O)Cc2ccccc2)CC1 (stereo partly specified) [US20250313563, Compound 945483] | 100 to 1000 nM | 100 to 1000 nM |
| CC[C@H]1CCN1c1cccc([C@@]2(CC)C3=CN=NC3NC3=C2C(=O)CC(C)(C)C3)c1 (stereo partly specified) [US20250313563, Compound 911969] | < 100 nM | 100 to 1000 nM |
| CCC1(c2cccc(-c3ccncc3F)c2)C2=CN=NC2NC2=C1C(=O)CC(C)(C)C2 (stereo unspecified) [US20250313563, Compound 883986] | < 100 nM | < 100 nM |
| CC1(C)CC(=O)C2=C(C1)NC1N=NC=C1C21CCCN(C(=O)c2ccccc2)CC1 (stereo unspecified) [US20250313563, Compound 889577] | 1000 to 5000 nM | 1000 to 5000 nM |
| CC1(C)CC(=O)C2=C(C1)NC1=C(CN=N1)C21CCC2(CC1)COC2 [US20250313563, Compound 883977] | < 100 nM | 100 to 1000 nM |
| CC[C@]1(c2cccc(-c3cnn(C)c3C)c2)C2=C(CC(C)(C)NC2=O)NC2N=NC(C)=C21 (stereo partly specified) [US20250313563, Compound 945727] | > 5000 nM | > 5000 nM |
| C[C@H]1CC(=O)C2=C(C1)NC1=C(CN=N1)[C@@]2(C)c1ccccc1 [US20250313563, Compound 789334] | 100 to 1000 nM | 1000 to 5000 nM |
| CC[C@]1(c2cccc(-c3c(C)nn(C)c3C)c2)C2=CN=NC2NC2=C1C(=O)CC(C)(C)C2 (stereo partly specified) [US20250313563, Compound 911990] | < 100 nM | < 100 nM and 100 to 1000 nM |
| CC1(C)CC(=O)C2=C(C1)NC1=C(CN=N1)C21CCCCC1=O (stereo unspecified) [US20250313563, Compound 912105] | > 5000 nM | > 5000 nM |
| CCC1(c2cccc(S(=O)(=O)C3CCOCC3)c2)C2=CN=NC2NC2=C1C(=O)CC(C)(C)C2 (stereo unspecified) [US20250313563, Compound 927344] | < 100 nM | < 100 nM |

| Structure (SMILES) | IC50 [1] | IC50 [2] |
| --- | --- | --- |
| CC1(C)CC(=O)C2=C(C1)NC1=C(CN=N1)C21CN(C(=O)OCc2ccccc2)C1 [US20250313563, Compound 889568] | 100 to 1000 nM | 1000 to 5000 nM |
| Cn1ccc(S(=O)(=O)N2CCC[C@@]3(CC2)C2=CN=NC2NC2=C3C(=O)CC(C)(C)C2)n1 (stereo partly specified) [US20250313563, Compound 932660] | < 100 nM | 100 to 1000 nM |
| CC[C@]1(c2cccc(CN(C)c3cc(C)cc(C)n3)c2)C2=CN=NC2NC2=C1C(=O)CC(C)(C)C2 (stereo partly specified) [US20250313563, Compound 945615] | > 5000 nM | > 5000 nM |
| CC1(C)CC(=O)C2=C(C1)NC1=C(CN=N1)C21CN(S(=O)(=O)c2cccc(F)c2)C1 [US20250313563, Compound 918278] | < 100 nM | < 100 nM |
| CC1(C)CC(=O)C2=C(C1)NC1=C(CN=N1)[C@]21CO[C@H](C2CC2)C1 [US20250313563, Compound 913184] | 100 to 1000 nM | 1000 to 5000 nM |
| CC[C@]1(c2cccc(-c3cn(C)nc3C)c2)C2=C(CC(C)(C)NC2=O)NC2N=NC(C)=C21 (stereo partly specified) [US20250313563, Compound 945996] | 100 to 1000 nM | 1000 to 5000 nM |
| CC[C@]1(c2cccc(N3C[C@@H](C)[C@@H](C)C3)c2)C2=CN=NC2NC2=C1C(=O)CC(C)(C)C2 (stereo partly specified) [US20250313563, Compound 918326] | 100 to 1000 nM | 100 to 1000 nM |
| CCC1(c2cccc(-c3ccnc(C)c3C)c2)C2=CN=NC2NC2=C1C(=O)CC(C)(C)C2 (stereo unspecified) [US20250313563, Compound 913347] | < 100 nM | < 100 nM |
| CCN1CC2(C1)C1=C(N=NC1)NC1=C2C(=O)CC(C)(C)C1 [US20250313563, Compound 929448] | > 5000 nM | > 5000 nM |
| CCC1(c2cccc(-c3ccnn3C)c2)C2=CN=NC2NC2=C1C(=O)NC(C)(C)C2 (stereo unspecified) [US20250313563, Compound 914971] | < 100 nM | 100 to 1000 nM |
| CCC1(c2cccc(N(C)c3nccc(C)n3)c2)C2=CN=NC2NC2=C1C(=O)CC(C)(C)C2 (stereo unspecified) [US20250313563, Compound 942642] | < 100 nM | < 100 nM and 1000 to 5000 nM |
| CC[C@@]1(c2cccc(-c3ccnn3C)c2)C2=CN=NC2NC2=C1C(=O)NC(C)(C)C2 (stereo partly specified) [US20250313563, Compound 927390] | 100 to 1000 nM | > 5000 nM |
| Cc1cc(-c2cccc3c2CCC[C@]32C3=CN=NC3NC3=C2C(=O)CC(C)(C)C3)ccn1 (stereo partly specified) [US20250313563, Compound 945550] | 100 to 1000 nM | > 5000 nM |
| CCC1(c2cccc(N(C)c3cccnc3C)c2)C2=CN=NC2NC2=C1C(=O)CC(C)(C)C2 (stereo unspecified) [US20250313563, Compound 885355] | 100 to 1000 nM | 1000 to 5000 nM |
| CC[C@]1(c2cccc(C)c2)C2=C(CC(C)(C)CC2=O)NC2N=NC(C(F)(F)F)=C21 (stereo partly specified) [US20250313563, Compound 883872] | 1000 to 5000 nM | > 5000 nM |
| O=C1CCCC2=C1C1(CCOCC1)C1=C(N=NC1)N2 [US20250313563, Compound 884111] | 1000 to 5000 nM | > 5000 nM |
| CC[C@]1(c2cccc(N3CCCCC3)c2)C2=C(CC(C)(C)CC2=O)NC2N=NC(C(F)(F)F)=C21 (stereo partly specified) [US20250313563, Compound 816800] | < 100 nM | < 100 nM |

Second part, the molecule after the results:

| IC50 [1] | IC50 [2] | Structure (SMILES) |
| --- | --- | --- |
| 100 to 1000 nM | 1000 to 5000 nM | Cc1nn(C)c(C)c1S(=O)(=O)N1CCC2(CC1)C1=C(N=NC1)NC1=C2C(=O)CC(C)(C)C1 [US20250313563, Compound 947257] |
| 100 to 1000 nM and > 5000 nM | 100 to 1000 nM and > 5000 nM | CC[C@@]1(c2ccccc2)C2=CN=NC2NC2=C1C(=O)CC(C)(C)[C@H]2F (stereo partly specified) [US20250313563, Compound 957200] |
| 100 to 1000 nM | 1000 to 5000 nM | CC[C@]1(c2cccc(-c3cnn(C)c3)c2)C2=C(N=NC2)NC2=C1C(=O)C(C)(C)C2 [US20250313563, Compound 950819] |
| < 100 nM and 100 to 1000 nM | 100 to 1000 nM and > 5000 nM | CC[C@@]1(c2cccc(-c3ccnc4ccncc34)c2)C2=CN=NC2NC2=C1C(=O)NC(C)(C)C2 (stereo partly specified) [US20250313563, Compound 952910] |
| < 100 nM | < 100 nM | CC1(C)CC(=O)C2=C(C1)NC1=C(CN=N1)C21COC2(CN(C(=O)C3(F)CC3)C2)C1 (stereo unspecified) [US20250313563, Compound 947487] |
| < 100 nM | 100 to 1000 nM | CC[C@@]1(c2cccc(C3=CNN4CC=CN=C34)c2)C2=CN=NC2NC2=C1C(=O)NC(C)(C)C2 (stereo partly specified) [US20250313563, Compound 950830] |
| 100 to 1000 nM | 1000 to 5000 nM | CC1CCC12C1=C(N=NC1)NC1=C2C(=O)CC(C)(C)C1 (stereo unspecified) [US20250313563, Compound 949640] |
| < 100 nM | 100 to 1000 nM | COc1ccc(C)c(S(=O)(=O)N2CCC3(CC2)C2=C(N=NC2)NC2=C3C(=O)CC(C)(C)C2)c1 [US20250313563, Compound 947245] |
| < 100 nM | < 100 nM | Cc1cccc(S(=O)(=O)N2CCC3(CC2)C2=C(N=NC2)NC2=C3C(=O)CC(C)(C)C2)c1 [US20250313563, Compound 947261] |
| < 100 nM | 100 to 1000 nM | CCC1(c2cccc(C(F)(F)F)c2)C2=CN=NC2NC2=C1C(=O)N(c1cscn1)CC2 (stereo unspecified) [US20250313563, Compound 950777] |
| < 100 nM | 100 to 1000 nM | CC[C@@]1(c2cccc(-c3ccnc(OC)c3Cl)c2)C2=CN=NC2NC2=C1C(=O)NC(C)(C)C2 (stereo partly specified) [US20250313563, Compound 952754] |
| < 100 nM | 100 to 1000 nM | CCc1cc(-c2cccc([C@]3(CC)C4=CN=NC4NC4=C3C(=O)NC(C)(C)C4)c2)ccn1 (stereo partly specified) [US20250313563, Compound 948370] |
| < 100 nM and 100 to 1000 nM | < 100 nM and 100 to 1000 nM | Cc1cc(C)cc(C(=O)N2CC3(C2)C[C@@]2(CO3)C3=C(N=NC3)NC3=C2C(=O)CC(C)(C)C3)c1 [US20250313563, Compound 948223] |
| < 100 nM | 100 to 1000 nM | CC1(C)CC(=O)C2=C(C1)NC1=C(CN=N1)C21COC2(CN(C(=O)C3CC(C)(C)C3)C2)C1 (stereo unspecified) [US20250313563, Compound 947282] |
| < 100 nM and 100 to 1000 nM | < 100 nM and 100 to 1000 nM | CC[C@@]1(c2cccc(-c3c(F)cncc3Cl)c2)C2=CN=NC2NC2=C1C(=O)NC(C)(C)C2 (stereo partly specified) [US20250313563, Compound 948371] |
| > 5000 nM | > 5000 nM | CC[C@]1(c2cccc(-c3cc(OC)nc4ccccc34)c2)C2=CN=NC2NC2=C1C(=O)NC(C)(C)C2 (stereo partly specified) [US20250313563, Compound 948647] |
| < 100 nM | < 100 nM | CCC1(c2cccc(C(F)F)c2)C2=C(CC(C)(C)NC2=O)NC2N=NC(C(F)(F)F)=C21 (stereo unspecified) [US20250313563, Compound 948305] |
| 100 to 1000 nM | 1000 to 5000 nM | CCC1(c2cccc(Br)c2)C2=C(N=NC2)NC2=C1C(=O)C(C)(C)C2 (stereo unspecified) [US20250313563, Compound 949805] |
| < 100 nM | < 100 nM | CC(C)n1ccc(S(=O)(=O)N2CCC3(CC2)C2=C(N=NC2)NC2=C3C(=O)CC(C)(C)C2)n1 [US20250313563, Compound 947258] |
